Experimental data published in BindingDB's records for doi:10.1016/0028-3908(94)90059-0 (University of Alberta, 1994).
Several values for one entry are separate records, joined by “and”; a condition that tells them apart may be missing. Identical values can stand only once.

Experiments:
[1] = molecular target: 5-hydroxytryptamine receptor 1B (Rattus norvegicus, UniProt P28564)
[2] = molecular target: 5-hydroxytryptamine receptor 1D (Rattus norvegicus, UniProt P28565)
[3] = molecular target: 5-hydroxytryptamine receptor 7 (Mus musculus, UniProt P32304)
Sequence of 5-hydroxytryptamine receptor 7 (P32304 whole entry): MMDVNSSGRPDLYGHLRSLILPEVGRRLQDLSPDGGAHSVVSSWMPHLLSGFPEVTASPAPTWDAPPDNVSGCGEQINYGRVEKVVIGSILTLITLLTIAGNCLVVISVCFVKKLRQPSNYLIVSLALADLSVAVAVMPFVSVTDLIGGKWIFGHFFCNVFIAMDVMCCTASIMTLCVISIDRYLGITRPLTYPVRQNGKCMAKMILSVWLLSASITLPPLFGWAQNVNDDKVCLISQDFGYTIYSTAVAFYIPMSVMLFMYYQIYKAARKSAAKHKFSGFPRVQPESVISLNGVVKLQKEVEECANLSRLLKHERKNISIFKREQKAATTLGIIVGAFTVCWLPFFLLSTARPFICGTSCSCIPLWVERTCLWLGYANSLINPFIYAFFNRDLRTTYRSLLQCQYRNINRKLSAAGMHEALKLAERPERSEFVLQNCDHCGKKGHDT

[4] = molecular target: T1, 5-hydroxytryptamine receptor 1F (Homo sapiens, UniProt P30939)
T1 sequence (P30939 whole entry): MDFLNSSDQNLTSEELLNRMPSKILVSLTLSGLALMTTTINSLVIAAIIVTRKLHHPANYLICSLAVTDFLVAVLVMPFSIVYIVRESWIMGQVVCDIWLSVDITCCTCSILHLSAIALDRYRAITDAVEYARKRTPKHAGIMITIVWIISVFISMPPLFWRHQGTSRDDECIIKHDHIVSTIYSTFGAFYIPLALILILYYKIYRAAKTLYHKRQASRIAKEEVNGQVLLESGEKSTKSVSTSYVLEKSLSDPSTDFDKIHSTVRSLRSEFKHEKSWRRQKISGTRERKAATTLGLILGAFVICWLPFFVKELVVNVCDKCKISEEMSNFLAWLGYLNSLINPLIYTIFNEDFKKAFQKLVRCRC

[5] = molecular target: 5-hydroxytryptamine receptor 2B (Rattus norvegicus, UniProt P30994)
Sequence of 5-hydroxytryptamine receptor 2B (Rattus norvegicus, UniProt P30994) (P30994 whole entry): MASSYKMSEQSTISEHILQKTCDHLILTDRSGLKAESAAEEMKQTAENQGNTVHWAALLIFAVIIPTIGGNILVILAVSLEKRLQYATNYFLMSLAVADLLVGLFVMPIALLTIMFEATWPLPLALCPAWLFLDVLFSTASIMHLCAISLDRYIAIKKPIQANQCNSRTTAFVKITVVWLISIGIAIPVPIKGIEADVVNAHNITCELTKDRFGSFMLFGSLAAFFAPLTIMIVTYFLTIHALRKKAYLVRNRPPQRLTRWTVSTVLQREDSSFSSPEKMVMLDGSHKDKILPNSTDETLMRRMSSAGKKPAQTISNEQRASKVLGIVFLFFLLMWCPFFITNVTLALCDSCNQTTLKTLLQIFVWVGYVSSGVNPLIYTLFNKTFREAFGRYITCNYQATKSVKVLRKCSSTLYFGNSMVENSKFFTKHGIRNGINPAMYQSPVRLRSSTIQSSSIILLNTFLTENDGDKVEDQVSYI

[6] = molecular target: 5-hydroxytryptamine receptor 2B (Mus musculus, UniProt Q02152)
Sequence of 5-hydroxytryptamine receptor 2B (Mus musculus, UniProt Q02152) (Q02152 whole entry): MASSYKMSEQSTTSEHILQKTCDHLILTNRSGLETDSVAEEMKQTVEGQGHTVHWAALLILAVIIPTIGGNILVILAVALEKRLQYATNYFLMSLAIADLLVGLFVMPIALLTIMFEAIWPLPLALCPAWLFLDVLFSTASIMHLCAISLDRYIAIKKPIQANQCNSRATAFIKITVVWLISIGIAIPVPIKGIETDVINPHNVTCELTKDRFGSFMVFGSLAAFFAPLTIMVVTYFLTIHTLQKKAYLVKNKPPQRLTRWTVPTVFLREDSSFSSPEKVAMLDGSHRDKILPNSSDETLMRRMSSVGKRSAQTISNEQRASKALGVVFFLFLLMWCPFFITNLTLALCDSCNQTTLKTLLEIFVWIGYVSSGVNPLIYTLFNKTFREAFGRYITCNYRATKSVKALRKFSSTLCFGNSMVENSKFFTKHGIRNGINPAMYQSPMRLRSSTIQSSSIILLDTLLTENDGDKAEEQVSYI

[7] = molecular target: 5-hydroxytryptamine receptor 1B (Homo sapiens, UniProt P28222)
Sequence of 5-hydroxytryptamine receptor 1B (Homo sapiens, UniProt P28222) (P28222 whole entry): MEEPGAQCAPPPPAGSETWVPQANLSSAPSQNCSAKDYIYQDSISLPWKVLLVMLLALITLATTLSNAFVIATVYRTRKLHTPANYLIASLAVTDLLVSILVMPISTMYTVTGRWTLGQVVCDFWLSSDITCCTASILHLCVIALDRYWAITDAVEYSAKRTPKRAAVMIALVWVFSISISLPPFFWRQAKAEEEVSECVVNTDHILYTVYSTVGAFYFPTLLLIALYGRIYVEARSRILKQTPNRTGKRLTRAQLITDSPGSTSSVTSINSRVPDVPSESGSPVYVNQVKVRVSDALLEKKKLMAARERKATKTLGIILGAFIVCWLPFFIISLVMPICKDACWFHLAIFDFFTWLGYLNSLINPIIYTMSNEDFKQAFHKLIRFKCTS

[8] = molecular target: T2, 5-hydroxytryptamine receptor 1F (Mus musculus, UniProt Q02284)
T2 sequence (Q02284 whole entry): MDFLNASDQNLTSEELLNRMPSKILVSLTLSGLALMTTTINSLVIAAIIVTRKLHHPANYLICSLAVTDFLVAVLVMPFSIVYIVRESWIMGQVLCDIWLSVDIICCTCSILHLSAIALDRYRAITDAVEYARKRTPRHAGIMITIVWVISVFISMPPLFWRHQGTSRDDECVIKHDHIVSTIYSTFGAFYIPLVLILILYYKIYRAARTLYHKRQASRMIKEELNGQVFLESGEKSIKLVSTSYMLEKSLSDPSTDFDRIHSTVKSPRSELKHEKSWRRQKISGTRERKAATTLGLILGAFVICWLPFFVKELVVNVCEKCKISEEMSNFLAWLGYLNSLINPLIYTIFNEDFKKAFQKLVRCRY

[9] = molecular target: 5-hydroxytryptamine receptor 1E (Homo sapiens, UniProt P28566)
Sequence of 5-hydroxytryptamine receptor 1E (P28566 whole entry): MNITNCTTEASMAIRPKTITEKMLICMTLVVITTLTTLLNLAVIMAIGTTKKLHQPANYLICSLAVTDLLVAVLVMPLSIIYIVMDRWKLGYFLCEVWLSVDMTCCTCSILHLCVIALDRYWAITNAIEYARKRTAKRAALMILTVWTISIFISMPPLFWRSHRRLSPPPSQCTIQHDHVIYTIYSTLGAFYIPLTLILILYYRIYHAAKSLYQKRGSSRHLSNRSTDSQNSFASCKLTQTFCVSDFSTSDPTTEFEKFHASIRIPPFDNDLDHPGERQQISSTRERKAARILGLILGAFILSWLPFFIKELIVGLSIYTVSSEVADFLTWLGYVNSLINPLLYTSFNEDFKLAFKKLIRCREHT

[10] = molecular target: 5-hydroxytryptamine receptor 1D (Homo sapiens, UniProt P28221)
Sequence of 5-hydroxytryptamine receptor 1D (Homo sapiens, UniProt P28221) (P28221 whole entry): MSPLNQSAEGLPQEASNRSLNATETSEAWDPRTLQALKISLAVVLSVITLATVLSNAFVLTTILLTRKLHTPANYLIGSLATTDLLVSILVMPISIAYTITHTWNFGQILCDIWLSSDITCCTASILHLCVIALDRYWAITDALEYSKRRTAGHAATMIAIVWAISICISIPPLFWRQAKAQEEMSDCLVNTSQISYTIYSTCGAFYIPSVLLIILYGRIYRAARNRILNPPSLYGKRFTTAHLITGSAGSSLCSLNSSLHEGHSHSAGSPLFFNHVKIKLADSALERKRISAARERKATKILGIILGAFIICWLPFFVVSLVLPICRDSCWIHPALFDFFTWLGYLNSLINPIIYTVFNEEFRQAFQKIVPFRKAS

[11] = molecular target: T3, 5-hydroxytryptamine receptor 1F (Rattus norvegicus, UniProt P30940)
T3 sequence (P30940 whole entry): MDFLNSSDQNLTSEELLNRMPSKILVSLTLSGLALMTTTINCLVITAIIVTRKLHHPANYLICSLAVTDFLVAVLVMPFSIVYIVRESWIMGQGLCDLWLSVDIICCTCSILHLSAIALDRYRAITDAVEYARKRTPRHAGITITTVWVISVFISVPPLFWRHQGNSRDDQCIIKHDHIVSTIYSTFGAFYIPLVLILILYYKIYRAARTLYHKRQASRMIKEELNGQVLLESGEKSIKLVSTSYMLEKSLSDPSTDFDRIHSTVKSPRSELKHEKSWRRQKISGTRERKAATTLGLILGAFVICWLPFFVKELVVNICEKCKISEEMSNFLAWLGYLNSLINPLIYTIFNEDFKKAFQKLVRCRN

[12] = molecular target: 5-hydroxytryptamine receptor 1B (Mus musculus, UniProt P28334)
Sequence of 5-hydroxytryptamine receptor 1B (Mus musculus, UniProt P28334) (P28334 whole entry): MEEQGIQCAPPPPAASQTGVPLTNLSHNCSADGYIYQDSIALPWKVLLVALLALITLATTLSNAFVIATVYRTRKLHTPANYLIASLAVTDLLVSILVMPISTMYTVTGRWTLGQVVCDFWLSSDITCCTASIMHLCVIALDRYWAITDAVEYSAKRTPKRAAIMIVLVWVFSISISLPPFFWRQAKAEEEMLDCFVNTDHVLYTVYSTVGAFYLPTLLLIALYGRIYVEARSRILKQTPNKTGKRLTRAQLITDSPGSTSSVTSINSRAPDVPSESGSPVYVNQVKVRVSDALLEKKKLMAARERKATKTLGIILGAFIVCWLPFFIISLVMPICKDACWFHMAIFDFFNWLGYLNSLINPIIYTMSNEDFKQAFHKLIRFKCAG

[13] = molecular target: 5-hydroxytryptamine receptor 1D (Canis lupus familiaris, UniProt P11614)
Sequence of 5-hydroxytryptamine receptor 1D (Canis lupus familiaris, UniProt P11614) (P11614 whole entry): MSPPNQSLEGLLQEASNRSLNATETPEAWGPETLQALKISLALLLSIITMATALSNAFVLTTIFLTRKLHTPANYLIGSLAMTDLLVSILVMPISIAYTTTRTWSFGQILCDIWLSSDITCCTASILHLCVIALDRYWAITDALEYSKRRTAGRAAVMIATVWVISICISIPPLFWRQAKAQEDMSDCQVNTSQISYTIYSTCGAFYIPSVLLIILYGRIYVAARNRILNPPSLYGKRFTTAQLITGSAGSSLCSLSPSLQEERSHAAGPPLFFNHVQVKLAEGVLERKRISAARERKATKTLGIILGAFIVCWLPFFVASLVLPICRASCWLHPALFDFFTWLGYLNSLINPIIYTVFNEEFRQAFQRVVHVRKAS

[14] = molecular target: T4, 5-hydroxytryptamine receptor 3A (Mus musculus, UniProt P23979)
T4 sequence (P23979 whole entry): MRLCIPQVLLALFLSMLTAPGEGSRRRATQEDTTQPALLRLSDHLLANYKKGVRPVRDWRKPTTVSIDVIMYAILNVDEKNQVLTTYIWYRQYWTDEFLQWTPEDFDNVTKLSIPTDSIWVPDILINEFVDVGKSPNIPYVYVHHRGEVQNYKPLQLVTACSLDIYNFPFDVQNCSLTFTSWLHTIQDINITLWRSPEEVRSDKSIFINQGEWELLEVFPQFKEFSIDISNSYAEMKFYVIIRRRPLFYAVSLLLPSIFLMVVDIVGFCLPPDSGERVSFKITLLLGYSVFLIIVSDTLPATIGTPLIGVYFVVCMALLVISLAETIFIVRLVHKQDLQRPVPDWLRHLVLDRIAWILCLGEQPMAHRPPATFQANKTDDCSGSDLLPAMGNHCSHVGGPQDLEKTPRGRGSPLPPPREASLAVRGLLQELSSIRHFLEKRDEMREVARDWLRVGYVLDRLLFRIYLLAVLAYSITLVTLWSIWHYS

[15] = molecular target: 5-hydroxytryptamine receptor 5A (Mus musculus, UniProt P30966)
Sequence of 5-hydroxytryptamine receptor 5A (P30966 whole entry): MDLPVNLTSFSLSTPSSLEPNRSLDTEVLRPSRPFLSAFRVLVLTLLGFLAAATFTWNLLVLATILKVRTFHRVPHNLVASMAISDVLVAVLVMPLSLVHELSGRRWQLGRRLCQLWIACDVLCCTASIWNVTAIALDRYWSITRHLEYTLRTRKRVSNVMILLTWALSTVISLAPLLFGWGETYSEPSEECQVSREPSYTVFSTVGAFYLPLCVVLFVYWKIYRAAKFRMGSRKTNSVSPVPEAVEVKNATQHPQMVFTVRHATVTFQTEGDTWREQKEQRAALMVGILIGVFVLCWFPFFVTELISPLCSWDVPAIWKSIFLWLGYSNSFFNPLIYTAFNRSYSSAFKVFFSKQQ

Sequence of 5-hydroxytryptamine receptor 1D (Rattus norvegicus, UniProt P28565) (P28565 whole entry): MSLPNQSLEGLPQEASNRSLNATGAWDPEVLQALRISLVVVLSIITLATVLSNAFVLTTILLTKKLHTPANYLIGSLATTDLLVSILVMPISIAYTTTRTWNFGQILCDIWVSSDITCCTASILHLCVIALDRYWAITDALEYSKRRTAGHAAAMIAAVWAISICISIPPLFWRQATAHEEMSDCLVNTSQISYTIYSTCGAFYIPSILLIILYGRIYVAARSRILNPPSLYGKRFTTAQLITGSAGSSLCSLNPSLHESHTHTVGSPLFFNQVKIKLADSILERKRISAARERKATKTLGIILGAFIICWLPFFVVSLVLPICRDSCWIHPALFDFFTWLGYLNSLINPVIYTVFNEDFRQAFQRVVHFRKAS
Sequence of 5-hydroxytryptamine receptor 1B (Rattus norvegicus, UniProt P28564) (P28564 whole entry): as the sequence (P28334 whole entry) above, with A15T, T23A, G33D, E152D, M192V, A270V, D272E, A385T counted along it

Q: Which results are given for `Cc1cc(C(C)(C)C)c(O)c(C)c1CC1=NCCN1` [SMR000059324]?
A: Ki [1]: 2.51 nM and 0.81 nM; Ki [2]: 1.28 nM

Q: How did the Ki [3] turn out when `CC(C)(C)[C@]1(O)CCN2C[C@H]3c4ccccc4CCc4cccc(c43)[C@@H]2C1` was run?
A: 31.6 nM

Q: What about the Ki [4] of the same molecule?
A: 3890 nM

Q: For `Cc1[nH]c2ccc(O)cc2c1CCN`, which Ki [5] is on record?
A: 316 nM

Q: And the Ki [6]?
A: 6610 nM

Q: What about the Ki [7] of the same molecule?
A: 851 nM and 513 nM

Q: How did the Ki [3] turn out when `CN1C[C@@H](NS(=O)(=O)N(C)C)C[C@@H]2c3cccc4c3c(cn4C)C[C@H]21` [MESULERGINE] was run?
A: 25.1 nM

Q: What about the Ki [7] of the same molecule?
A: 1290 nM and 631 nM

Q: `CN(C)CCCN1c2ccccc2Sc2ccc(Cl)cc21` [[3-(2-Chloro-phenothiazin-10-yl)-propyl]-dimethyl-amine(Chlorpromazine)] was tested. Which Ki [3] did it give?
A: 5010 nM

Q: Which Ki [5] does the source give for `CN1CC(C(=O)N[C@]2(C)O[C@@]3(O)C4CCCN4C(=O)[C@H](Cc4ccccc4)N3C2=O)CC2c3cccc4[nH]cc(c34)CC21` (stereo partly drawn) [7-Methyl-4,6,6a,7,8,9,10,10a-octahydro-indolo[4,3-fg]quinoline-9-carboxylic acid ((2R,5S,10bS)-5-benzyl-10b-hydroxy-2-methyl-3,6-dioxo-octahydro-oxazolo[3,2-a]pyrrolo[2,1-c]pyrazin-2-yl)-amide] here?
A: 145 nM

Q: What about the Ki [2] of the same molecule?
A: 0.06 nM

Q: Which Ki [5] does the source give for `FC(F)(F)c1cccc(N2CCNCC2)c1` [TFMPP] here?
A: 85.1 nM

Q: And the Ki [8]?
A: 794 nM

Q: And the Ki [2]?
A: 58.9 nM

Q: With `CN1CCc2cc(Cl)c(O)cc2[C@@H](c2ccccc2)C1` [SCH 23390,R(+)] as the molecule, how does the Ki [5] read?
A: 83.2 nM

Q: With `CN1C[C@H](CNC(=O)OCc2ccccc2)C[C@@H]2c3cccc4c3c(cn4C)C[C@H]21` [METERGOLINE] as the molecule, how does the Ki [9] read?
A: 1120 nM and 776 nM

Q: What about the Ki [3] of the same molecule?
A: 31.6 nM

Q: And the Ki [10]?
A: 0.6 nM

Q: What about the Ki [2] of the same molecule?
A: 0.77 nM

Q: And the Ki [7]?
A: 5.24 nM and 36.3 nM

Q: What about the Ki [11] of the same molecule?
A: 513 nM

Q: With `CC(C)NCC(O)COc1cccc2[nH]ccc12` (stereo not given) [LB-46] as the molecule, how does the Ki [12] read?
A: 63.1 nM

Q: With `CCN(CC)C(=O)[C@@H]1C=C2c3cccc4[nH]cc(c34)C[C@H]2N(C)C1` [(4R,7R)-N,N-diethyl-6-methyl-6,11-diazatetracyclo[7.6.1.0^{2,7}.0^{12,16}]hexadeca-1(16),2,9,12,14-pentaene-4-carboxamide] as the molecule, how does the Ki [13] read?
A: 12.6 nM

Q: How did the Ki [3] turn out when `CN1CCN2c3ccccc3Cc3ccccc3[C@H]2C1` [MIANSERIN (+)] was run?
A: 100 nM

Q: And the Ki [4]?
A: 12.6 nM

Q: And the Ki [8]?
A: 100 nM

Q: And the Ki [2]?
A: 30.2 nM

Q: What does the source list for `NCCc1c[nH]c2ccccc12` [1H-indole-3-ethanamine]?
A: Ki [5]: 200 nM; Ki [6]: 200 nM

Q: Which results are given for `Clc1cccc(N2CCNCC2)c1` [mCPP]?
A: Ki [5]: 26.9 nM; Ki [7]: 363 nM and 501 nM

Q: For `COC(=O)[C@@H]1[C@H]2C[C@H]3c4[nH]c5ccccc5c4CCN3C[C@@H]2CC[C@@H]1O` [yohimbic acid methyl ester], which Ki [12] is on record?
A: > 10000 nM

Q: And the Ki [5]?
A: 58.9 nM and 35.5 nM and 107 nM and 53.7 nM

Q: What about the Ki [13] of the same molecule?
A: 5.24 nM

Q: What about the Ki [8] of the same molecule?
A: 63.1 nM

Q: And the Ki [10]?
A: 15.8 nM and 47.9 nM

Q: What about the Ki [2] of the same molecule?
A: 30.9 nM

Q: What about the Ki [11] of the same molecule?
A: 562 nM

Q: Which Ki [1] does the source give for `c1ccc2c(N3CCNCC3)cccc2c1` here?
A: 39.8 nM

Q: And the Ki [4]?
A: 53.7 nM

Q: And the Ki [10]?
A: 7.41 nM

Q: And the Ki [7]?
A: 12 nM

Q: How did the Ki [5] turn out when `CN1CCC(=C2c3ccccc3CCc3sccc32)CC1` [NSC_27400] was run?
A: 38.9 nM

Q: With `COc1ccc2[nH]cc(C3=CCNCC3)c2c1` [5-Methoxy-3-(1,2,3,6-tetrahydro-pyridin-4-yl)-1H-indole(RU-24969)] as the molecule, how does the Ki [1] read?
A: 1.58 nM and 2.57 nM and 0.36 nM

Q: And the Ki [12]?
A: 10 nM

Q: And the Ki [13]?
A: 63.1 nM

Q: And the Ki [8]?
A: 158 nM

Q: And the Ki [2]?
A: 46.8 nM

Q: Which Ki [3] does the source give for `CC(C)C[C@H]1C(=O)N2CCC[C@H]2[C@]2(O)O[C@](NC(=O)[C@@H]3C=C4c5cccc6[nH]c(Br)c(c56)C[C@H]4N(C)C3)(C(C)C)C(=O)N12` [Bromocriptine+ (GTP+)] here?
A: 126 nM

Q: `CN1C2CCC1CC(OC(=O)c1c[nH]c3ccccc13)C2` (stereo not given) was tested. Which Ki [14] did it give?
A: 1.99 nM

Q: With `CN1CCN(c2nc3cc(C(F)(F)F)ccc3n3cccc23)CC1` [CAS_109028-10-6] as the molecule, how does the Ki [2] read?
A: 4.89 nM

Q: What does the source list for `CCCN(CCC)CCc1c[nH]c2ccc(C(N)=O)cc12` [NN-DIPROP-5-CT]?
A: Ki [10]: 12.9 nM; Ki [7]: 41.7 nM

Q: With `CNS(=O)(=O)Cc1ccc2[nH]cc(CCN(C)C)c2c1` [Sumax] as the molecule, how does the Ki [9] read?
A: 2340 nM and 2090 nM

Q: What about the Ki [15] of the same molecule?
A: > 10000 nM

Q: And the Ki [8]?
A: 79.4 nM

Q: Which Ki [14] does the source give for `COc1cc2c3cc1Oc1cc(ccc1O)C[C@@H]1c4c(cc(OC)c(O)c4Oc4ccc(cc4)C[C@@H]3N(C)CC2)CC[N+]1(C)C` [Tubocurarine,d] here?
A: 8.7 nM

Q: Which Ki [14] does the source give for `CN1C2CCC1CC(OC(=O)c1cc(Cl)cc(Cl)c1)C2` (stereo not given) [MDL 72222] here?
A: 87.1 nM

Q: Which results are given for `CSc1ccc2c(c1)C(N1CCN(C)CC1)Cc1ccccc1S2` (stereo not given) [methanesulfonic acid;1-methyl-4-(3-methylsulfanyl-5,6-dihydrobenzo[b][1]benzothiepin-5-yl)piperazine]?
A: Ki [9]: 209 nM and 120 nM; Ki [1]: 12.9 nM and 10.5 nM; Ki [15]: 126 nM; Ki [2]: 0.58 nM; Ki [11]: 1000 nM

Q: With `CCC(=O)c1ccc(N)cc1` [CAS_6270] as the molecule, how does the Ki [13] read?
A: 34.7 nM

Q: What does the source list for `O=C(CCCN1CCC2(CC1)C(=O)NCN2c1ccccc1)c1ccc(F)cc1` [8-[4-(4-fluorophenyl)-4-oxidanylidene-butyl]-1-phenyl-1,3,8-triazaspiro[4.5]decan-4-one]?
A: Ki [3]: 63.1 nM; Ki [13]: 1000 nM; Ki [6]: 50.1 nM; Ki [4]: 3.98 nM; Ki [2]: 61.6 nM

Q: `CN(C)CCc1c[nH]c2ccc(O)cc12` [3-[2-(dimethylamino)ethyl]indol-5-ol] was tested. Which Ki [8] did it give?
A: 31.6 nM

Q: Which results are given for `CCN(CC)C(=O)[C@@H]1C=C2c3cccc4[nH]c(Br)c(c34)C[C@H]2N(C)C1` [LSD,2-Bromo]?
A: Ki [3]: 10 nM; Ki [5]: 12.6 nM

Q: For `CCCN(CCC)C1CCc2cccc(O)c2C1` (stereo not given), which Ki [3] is on record?
A: 251 nM

Q: And the Ki [15]?
A: 1580 nM

Q: Which Ki [13] does the source give for `COc1ccc2[nH]cc(CCN(C)C)c2c1` [3-(2-DIMETHYLAMINOETHYL)-5-METHOXYINDOLE] here?
A: 5.12 nM

Q: With `CC(C)n1cc2c3c(cccc31)C1CC(C(=O)NC3CCCCC3)CN(C)C1C2` (stereo not given) [NSC_60740] as the molecule, how does the Ki [5] read?
A: 10.7 nM

Q: For `NCCc1c[nH]c2ccc(Br)cc12`, which Ki [5] is on record?
A: 38.9 nM

Q: With `Cn1cc(CCN)c2cc(O)ccc21` [5-HT,omega-N-Me] as the molecule, how does the Ki [5] read?
A: 10.5 nM

Q: What does the source list for `COc1cc(CC(C)N)c(OC)cc1I` (stereo not given) [[125I]2,5-dimethoxy-4-iodoamphetamine]?
A: Ki [5]: 27.5 nM; Ki [4]: 2510 nM

Q: Which Ki [1] does the source give for `CC(C)(C)NCC(O)COc1cccc2[nH]c(C#N)cc12` (stereo not given) [NSC_155346] here?
A: 0.26 nM

Q: And the Ki [12]?
A: 2.51 nM

Q: And the Ki [2]?
A: 36.3 nM

Q: What about the Ki [7] of the same molecule?
A: 21.4 nM
